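Five concentrations, 48 hours, 96-well plates. Here, GI50 denotes the concentration required for 50% inhibition of growth.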 Calls of active or inactive are those of the source. Cut-off read from the data, not from the text of the source: active = GI50 up to about 1.1 µM and inactive = higher.

The values that follow come from ChEMBL document CHEMBL1201862, “PubChem BioAssay data set” (2004).

Among the test systems are SNB-75; MOLT-4; IGROV-1; A498; SF-268; ACHN; EKVX; U-251; LOX IMVI; SR; COLO 205; OVCAR-5; UACC-257; SK-OV-3; SN12C; CCRF-CEM; NCI-H226; SK-MEL-28.
Holding throughout (assay): inhibition of tumour cell growth, NCI panel, 48 h

With `COc1ccc2nc3cc(Cl)ccc3c(Sc3ccc([N+](=O)[O-])cc3)c2c1`, the GI50 with SNB-75 is 34.1 µM (inactive); with MOLT-4, > 10 µM (inactive); in the assay with IGROV-1, > 10 µM (inactive); in the assay with A498, > 10 µM (inactive); with SF-268, > 10 µM (inactive); in the assay on ACHN, > 10 µM (inactive). For the same molecule, the GI50 with EKVX, with U-251, in the assay with LOX IMVI, in the assay on SR, with COLO 205 and with OVCAR-5 was > 10 µM (inactive) throughout. Further, the GI50 in the assay with UACC-257, in the assay with SK-OV-3, in the assay on SN12C, in the assay with CCRF-CEM, with NCI-H226 and in the assay on SK-MEL-28 was > 10 µM (inactive) in each case.
On to `C/C(=C1/N=C(c2cc([N+](=O)[O-])ccc2Cl)N(c2cccc(C)c2)C1=O)c1cc2ccccc2oc1=O`, for which the GI50 is > 100 µM (inactive) in the assay on SNB-75; 21.3 µM (inactive) in the assay with MOLT-4; 45.1 µM (inactive) in the assay on IGROV-1; > 100 µM (inactive) in the assay with A498; > 100 µM (inactive) in the assay on SF-268; 48.8 µM (inactive) in the assay with ACHN. Moreover, the GI50 was > 100 µM (inactive) in the assay on EKVX; 16.7 µM (inactive) in the assay with LOX IMVI; 30.3 µM (inactive) in the assay on SR; 45.3 µM (inactive) with COLO 205; > 100 µM (inactive) with OVCAR-5; 17.3 µM (inactive) with UACC-257. Moreover, the GI50 was > 100 µM (inactive) in the assay on SK-OV-3; > 100 µM (inactive) with SN12C; 23.3 µM (inactive) in the assay with CCRF-CEM; 43.6 µM (inactive) in the assay on NCI-H226; > 100 µM (inactive) in the assay with SK-MEL-28.
On to `COc1ccc(C2[C@H]3C(=O)N(c4ccc(Cc5ccc(N6C(=O)[C@@H]7ON(c8ccccc8)C(c8ccc(OC)cc8)[C@@H]7C6=O)cc5)cc4)C(=O)[C@H]3ON2c2ccccc2)cc1` (some centres undefined), for which the GI50 with SNB-75, in the assay on MOLT-4, in the assay on IGROV-1, in the assay with A498, with SF-268 and with ACHN was > 100 µM (inactive) throughout. Besides, the GI50 in the assay with EKVX, with U-251, in the assay with LOX IMVI, in the assay on SR, in the assay on COLO 205 and with OVCAR-5 was > 100 µM (inactive) each time. Further, the GI50 in the assay with UACC-257, in the assay with SK-OV-3, in the assay with SN12C, in the assay with CCRF-CEM, in the assay on NCI-H226 and in the assay on SK-MEL-28 was > 100 µM (inactive) in each case.
On to `CCCCCCCCCCCC1CC(=O)NCCCN(C)CCCCN(C)CCCN1C` (centres undefined) [BUDMUNCHIAMINE A], for which the GI50 is 1.59 µM (inactive) in the assay with SNB-75; 1.95 µM (inactive) in the assay on MOLT-4; 1.82 µM (inactive) in the assay on IGROV-1; 1.67 µM (inactive) in the assay with A498; 1.85 µM (inactive) with SF-268; 1.69 µM (inactive) in the assay with ACHN. Also, the GI50 in the assay with EKVX is 1.78 µM (inactive); in the assay on U-251, 1.66 µM (inactive); in the assay with LOX IMVI, 1.48 µM (inactive); with SR, 0.23 µM (active); in the assay with COLO 205, 1.53 µM (inactive); in the assay on OVCAR-5 it was 1.85 µM (inactive). The GI50 was 1.68 µM (inactive) with UACC-257; 1.8 µM (inactive) in the assay on SK-OV-3; 1.74 µM (inactive) in the assay on SN12C; 0.156 µM (active) with CCRF-CEM; 1.93 µM (inactive) with NCI-H226; 1.69 µM (inactive) in the assay with SK-MEL-28.
On to `Cc1ccc(/C=N/NS(=O)(=O)c2ccccc2)c(C)c1`, for which the GI50 in the assay on SNB-75, with MOLT-4, with IGROV-1, in the assay with A498, with SF-268 and in the assay on ACHN was > 100 µM (inactive) in each case. For the same molecule, the GI50 with EKVX, with U-251, in the assay on LOX IMVI, with SR, in the assay on COLO 205 and with OVCAR-5 was > 100 µM (inactive) in each case. Also, the GI50 is 80 µM (inactive) in the assay on UACC-257; > 100 µM (inactive) with SK-OV-3; > 100 µM (inactive) in the assay on SN12C; 78.9 µM (inactive) with CCRF-CEM; > 100 µM (inactive) in the assay with NCI-H226; > 100 µM (inactive) in the assay with SK-MEL-28.
As for `c1ccc([P+](CCC[P+](c2ccccc2)(c2ccccc2)c2ccccc2)(c2ccccc2)c2ccccc2)cc1`, the GI50 with SNB-75 was 31.8 µM (inactive); in the assay on IGROV-1 it was 41.7 µM (inactive); in the assay on A498, 93.5 µM (inactive); with SF-268, 40.4 µM (inactive); in the assay with ACHN, > 100 µM (inactive); in the assay with EKVX, > 100 µM (inactive). In addition, the GI50 is 6.65 µM (inactive) with U-251; 23.7 µM (inactive) in the assay with LOX IMVI; 45 µM (inactive) with SR; 21.8 µM (inactive) with COLO 205; 71.1 µM (inactive) in the assay on OVCAR-5; 24 µM (inactive) in the assay with UACC-257. Also, the GI50 in the assay with SK-OV-3 is > 100 µM (inactive); with SN12C it was 33.3 µM (inactive); in the assay on CCRF-CEM it was 22.4 µM (inactive); in the assay on NCI-H226, 23.6 µM (inactive); in the assay on SK-MEL-28, 33.5 µM (inactive).
Take `CC(C)(c1ccccc1)c1ccc(Oc2ccc(C#N)c(C#N)c2)cc1`: the GI50 in the assay on SNB-75 was > 10 µM (inactive); in the assay with MOLT-4 it was 28.5 µM (inactive); in the assay with IGROV-1, > 10 µM (inactive); in the assay on A498 it was > 10 µM (inactive); in the assay on SF-268, 43.5 µM (inactive); in the assay on ACHN, 33.8 µM (inactive). Besides, the GI50 in the assay with EKVX was 46.1 µM (inactive); in the assay on U-251, 99.8 µM (inactive); in the assay with LOX IMVI it was > 10 µM (inactive); in the assay with SR, 6.41 µM (inactive); with COLO 205, > 10 µM (inactive); with OVCAR-5 it was > 10 µM (inactive). Besides, the GI50 in the assay with UACC-257 was > 10 µM (inactive); in the assay with SK-OV-3 it was > 10 µM (inactive); in the assay on SN12C, > 10 µM (inactive); in the assay on CCRF-CEM it was 56.5 µM (inactive); in the assay with NCI-H226 it was > 10 µM (inactive); with SK-MEL-28, > 10 µM (inactive).
As for `COc1ccc(CC2(Cc3ccc(OC)cc3)CCOC2=O)cc1`, the GI50 with SNB-75 is 14.7 µM (inactive); with MOLT-4, > 100 µM (inactive); with IGROV-1, > 100 µM (inactive); with A498, > 100 µM (inactive); with SF-268, 45.8 µM (inactive); with ACHN, 94.8 µM (inactive). The GI50 with EKVX is 44.2 µM (inactive); with U-251, > 100 µM (inactive); in the assay with SR it was > 100 µM (inactive); with COLO 205 it was > 100 µM (inactive); with OVCAR-5, > 100 µM (inactive); in the assay on UACC-257 it was > 100 µM (inactive). Besides, the GI50 with SK-OV-3, in the assay on SN12C, in the assay on CCRF-CEM, with NCI-H226 and in the assay with SK-MEL-28 was > 100 µM (inactive) throughout.
Take `COC(=O)c1c(CC(=O)OC(C)C)cc2n(c1=O)Cc1c-2nc2ccccc2c1OC`: the GI50 is 27 µM (inactive) in the assay on SNB-75; > 100 µM (inactive) in the assay on MOLT-4; 83.9 µM (inactive) with IGROV-1; > 100 µM (inactive) in the assay on A498; > 100 µM (inactive) with SF-268; > 100 µM (inactive) with ACHN. For the same molecule, the GI50 with EKVX is > 100 µM (inactive); with U-251, > 100 µM (inactive); in the assay on LOX IMVI, > 100 µM (inactive); in the assay on SR, 33.8 µM (inactive); with COLO 205 it was > 100 µM (inactive); with OVCAR-5, > 100 µM (inactive). In addition, the GI50 is > 100 µM (inactive) in the assay on UACC-257; > 100 µM (inactive) with SK-OV-3; > 100 µM (inactive) in the assay with SN12C; > 100 µM (inactive) with CCRF-CEM; 99.1 µM (inactive) in the assay on NCI-H226; > 100 µM (inactive) in the assay with SK-MEL-28.
In the case of `COC1=C2CC(C)CC(OC)C(O)C(C)/C=C(\C)C(OC(N)=O)C(OC)/C=C\C=C(/C)C(=O)NC(=C(/C=N/N3CCCCC3)C1=O)C2=O` (centres undefined), the GI50 is 17.8 µM (inactive) with SNB-75; 2.62 µM (inactive) with MOLT-4; 5.5 µM (inactive) in the assay on IGROV-1; 23.9 µM (inactive) in the assay with A498; 6.18 µM (inactive) with SF-268; 15.4 µM (inactive) in the assay with ACHN. The GI50 with EKVX is 8.43 µM (inactive); in the assay with U-251, 6.4 µM (inactive); with LOX IMVI it was 8.55 µM (inactive); with SR it was 2.59 µM (inactive); in the assay with COLO 205 it was 2.93 µM (inactive); in the assay on OVCAR-5, 19.4 µM (inactive). In addition, the GI50 with UACC-257 was 11.9 µM (inactive); with SK-OV-3, 21.9 µM (inactive); with SN12C, 4.5 µM (inactive); in the assay with CCRF-CEM it was 2.55 µM (inactive); in the assay on NCI-H226 it was 12.4 µM (inactive); in the assay with SK-MEL-28, 18.7 µM (inactive).
Take `O=C(Cc1nc2ccccc2c(=O)n1-c1c(Cl)cccc1Cl)c1ccncc1`: the GI50 was 25.1 µM (inactive) in the assay on SNB-75; 19 µM (inactive) in the assay with MOLT-4; 22.4 µM (inactive) in the assay with IGROV-1; 30.5 µM (inactive) in the assay with A498; 31 µM (inactive) in the assay on SF-268; 17.9 µM (inactive) with ACHN. For the same molecule, the GI50 in the assay on EKVX is 61.5 µM (inactive); with U-251, 29.6 µM (inactive); in the assay with LOX IMVI, > 10 µM (inactive); in the assay with SR, 17.8 µM (inactive); with COLO 205, 17.8 µM (inactive); in the assay with UACC-257 it was 22.3 µM (inactive). In addition, the GI50 in the assay on SK-OV-3 was 53.1 µM (inactive); in the assay on SN12C it was 85.9 µM (inactive); with CCRF-CEM it was 16.7 µM (inactive); in the assay on NCI-H226 it was > 10 µM (inactive); with SK-MEL-28, 21.1 µM (inactive).
